How the values were obtained:
recombinant human ARG2 = target: T1, recombinant human ARG2 (Homo sapiens, UniProt P78540); assay: Recombinant arginase activity assay, hARG2; assay type: biochemical; settings: 1 h at 37°C, pH 7.4, 10 mM L-arginine, urea detection; read-out: Inhibition of recombinant hARG2: IC50
T1 construct: made in house; host or cells: E. coli
T1 sequence (P78540 23-354): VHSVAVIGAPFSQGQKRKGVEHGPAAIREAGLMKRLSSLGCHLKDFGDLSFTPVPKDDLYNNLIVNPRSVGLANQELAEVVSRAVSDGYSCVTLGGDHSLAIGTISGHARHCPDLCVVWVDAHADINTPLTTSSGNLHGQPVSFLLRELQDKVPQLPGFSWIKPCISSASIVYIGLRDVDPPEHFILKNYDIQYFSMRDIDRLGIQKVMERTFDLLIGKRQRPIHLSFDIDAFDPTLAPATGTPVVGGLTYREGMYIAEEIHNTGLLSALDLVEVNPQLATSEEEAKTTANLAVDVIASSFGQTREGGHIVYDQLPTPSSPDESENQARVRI
Description: (§1) The inhibitory activity towards hARG1 and hARG2 enzymes was assessed using recombinant enzymes biosynthesized using a prokaryotic expression system (E. coli) and purified by fast protein liquid chromatography (FPLC). Briefly, recombinant enzymes were incubated with the tested compounds for 1 h at 37°C in the reaction buffer (100 mM sodium phosphate buffer, 130 mM NaCl, 1 mg/mL BSA, pH 7.4) containing substrate (10 mM L-arginine hydrochloride) and cofactor (200 µM MnCl2). The assay is based on the detection of urea, which is generated during the conversion of L-arginine into L-ornithine catalyzed by arginases. To visualize the product, we adding a mixture of reagent A (4 mM oPA, 50 mM boric acid, 1 M sulfuric acid, 0.03% Brij-35) and reagent B (4 mM NED, 50 mM boric acid, 1 M sulfuric acid, 0.03% Brij-35) in equal proportions. The absorbance was measured at 515 nm. The urea production in the absence of any tested compound was considered as maximal enzyme activity. The absorbance in the absence of arginase (background) was considered as zero activity. Two reference compounds OAT-81 (ABH, no. 222638-65-5) and OAT-90 (2-amino-6-borono-2-(2-(3-(2,4-dichlorophenyl)propyloamino)ethyl) hexanoic acid, and two novel inhibitors OAT-1617 and OAT-1746 (the last three synthesized at OncoArendi Therapeutics) were tested. Normalized values were analyzed using GraphPad Prism 7.0 software and the IC50 values were determined.

U87-MG glioma cells = assay: Matrigel invasion assay, U87-MG co-cultured with BV2 microglia; assay type: cell-based, human
Description: (§2) BV2 cells were plated onto a 24-well plate at the density of 4×10^4. After 24 h, the invasion assay was performed with tissue culture inserts (6.5 mm Transwell® with 8.0 µm Pore Polycarbonate Membrane Insert, Corning, NY, USA) coated with the Growth Factor Reduced Matrigel™ Matrix (BD Biosciences, San Diego. CA, USA). The Matrigel™ Matrix (50 µL of 1 mg/mL stock solution diluted in fresh DMEM) was dried under sterile conditions (37°C) for 5–6 h. The medium in BV2 cultures was replaced with fresh one 1 h before seeding glioblastoma cells onto the inserts, then LN18 and U87 glioblastoma cells were seeded at 2×10^4/insert on Matrigel-covered membranes in a serum-reduced medium (2% FBS). Untreated glioblastoma cells co-cultured with or without BV2 cells served as positive and negative controls, respectively. Cells were treated with the arginase-1 inhibitors OAT-90, OAT-1617 and OAT-1746 solved in PBS. The cultures were kept in incubator at 37°C with humidified air containing 5% CO2. After 18 h cells were fixed in ice-cold methanol and cell nuclei stained with DAPI (4′,6-Diamidino-2-Phenylindole; 1 µg/mL, Sigma). The membranes from Transwell® inserts were cut out and images were acquired using a fluorescence microscope (Leica DM4000B, 10x lens) from the 5 independent fields (bottom; top; left; right side and the middle). Numbers of invading cells were counted using the ImageJ software (NIH, Bethesda, MD, USA). All experiments were performed three times, in duplicates.

recombinant human ARG1 = target: T2, recombinant human ARG1 (Homo sapiens, UniProt P05089); assay: Recombinant arginase activity assay, hARG1; assay type: biochemical; settings: 1 h at 37°C, pH 7.4, 10 mM L-arginine, urea detection; read-out: Inhibition of recombinant hARG1: IC50
T2 construct: made in house; host or cells: E. coli
T2 sequence (P05089 1-322): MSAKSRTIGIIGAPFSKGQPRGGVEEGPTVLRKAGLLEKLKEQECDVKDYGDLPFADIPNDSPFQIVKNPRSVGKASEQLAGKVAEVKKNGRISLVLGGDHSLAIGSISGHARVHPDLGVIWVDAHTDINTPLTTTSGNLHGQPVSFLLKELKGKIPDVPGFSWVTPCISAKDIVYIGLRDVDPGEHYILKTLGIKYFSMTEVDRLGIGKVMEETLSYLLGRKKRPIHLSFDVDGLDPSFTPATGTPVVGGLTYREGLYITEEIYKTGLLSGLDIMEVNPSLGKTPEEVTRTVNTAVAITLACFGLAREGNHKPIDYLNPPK
Description: as §1

LN18 glioma cells = assay: Matrigel invasion assay, LN18 co-cultured with BV2 microglia; assay type: cell-based, human; settings: 11 µM, co-culture with BV2, 18 h
Description: as §2, with “After 18 h cells were fixed in ice-cold methanol and cell nuclei stained with DAPI (4′,6-Diamidino-2-Phenylindole; 1 µg/mL, Sigma).” left out, “All experiments were performed three times, in duplicates.” left out

T cell proliferation = tested on: T cell proliferation; design: method as in PMID 29254508; settings: cited from earlier work
[1] = tested on: CT26, LLC, B16, and 4T1 tumors; design: method as in PMID 29254508; settings: B16, 4T1; cited from earlier work

## NC(CCCCB(O)O)(CCNCCCc1ccc(Cl)cc1Cl)C(=O)O (stereo not drawn) [OAT-90, 2-amino-6-borono-2-(2-(3-(2,4-dichlorophenyl)propyloamino)ethyl) hexanoic acid, reference compound]
Recombinant human ARG2
  IC50: 796 nM
U87-MG glioma cells; 11 µM, co-culture with BV2, 18 h
  microglia-induced invasion of U87-MG cells: effectively reduced glioma invasion
U87-MG glioma cells; 0.1 and 11 µM, U87-MG with BV2
  concentration dependence of the inhibitory effect on glioma invasion: this dependence was not observed
Recombinant human ARG1
  IC50: 151 nM
LN18 glioma cells
  microglia-induced invasion of LN18 cells: effectively reduced glioma invasion

## N[C@@H](CCCCB(O)O)C(=O)O [Ref.comp. 1, ABH]
Recombinant human ARG2
  IC50: 2670 nM
Recombinant human ARG1
  IC50: 1080 nM

## C[C@H](N)C(=O)N1C[C@H](CCCB(O)O)[C@](N)(C(=O)O)C1 [CB-1158]
T cell proliferation
  myeloid cell-mediated suppression of T cell proliferation in vitro: blocked
[1]
  tumor growth in mouse models of non-CNS tumors: reduced tumor growth

Reference: PMC8422859, “A Novel Oral Arginase 1/2 Inhibitor Enhances the Antitumor Effect of PD-1 Inhibition in Murine Experimental Gliomas by Altering the Immunosuppressive Environment” (Frontiers in Oncology, 2021)
